Where two headings read alike, the source gives them in different places. Residues, ends and D or L forms follow the SMILES beside them.
Legend:
Bcl-xL = target: T1, Bcl-xL (Homo sapiens, UniProt Q07817, DEL27-82); experiment: Isothermal titration calorimetry of peptides with Bcl-xL; type: binding; details: ITC, 25 °C, peptide 800 μM
T1 construct: 6xHis-SUMO (N, cleaved yes); made in house; host or cells: Escherichia coli BL21(DE3)
Text: The codon-optimized DNAs encoding Bcl-xLΔTM (the flexible loop, residues 27–82, and the transmembrane domain, residues, 197–233, are deleted, total […], named as Bcl-xL thereafter) was ordered from Genewiz (www.genewiz.com). The recombinant Bcl-xL with N-terminal SUMO-fused 6× His tag was generated by the insertion of the PCR products into pETSUMO vector (Invitrogen; www.thermofisher.com) and verified by sequencing. Recombinant proteins were expressed in Escherichia coli (BL21/DE3) strain overnight at 20 °C and proteins were induced by 0.4 mM isopropyl β-D-thiogalactoside. Cells were harvested by centrifugation and the pellets were re-suspended and passed through a cell disruptor (www.avestin.com) three times. After ultracentrifugation at 40,000 rpm for 1 h, the supernatant for His-tagged recombinant proteins were purified through Ni^2+ affinity column, cleaved by Ulp-1, followed by HiLoad Superdex S-75 26/60 column (GE Healthcare). The purified proteins were dialyzed against stabilization buffer containing 20 mM Tris-HCl (pH 7.0) and 100 mM NaCl and concentrated to 10–15 mg/ml in a Centriprep-30 (Amicon) for subsequent crystallization and biochemical analysis.
Microcalorimetry was used for all measurements. Bcl-xL protein was prepared at a final concentration of 10 μM in a buffer containing 25 mM Tris-HCl (pH 8.0). The ABT-263 was dissolved in the same buffer to a final concentration of 500 μM, while the peptides were dissolved to a final concentration of 800 μM. All experiments were carried out at 25 °C. Data were analyzed using the software Origin (OriginLab).

HepG2-NTCP cells [1] = experiment: Cell viability (CCK8 assay) of HBV-infected HepG2-NTCP cells; type: cell-based; design: Cell viability: unit not given here; details: for Cell viability: day 8 after HBV infection
Protocol: Fig. 6 The HBx-aa118–127 peptide, but not ABT-263, inhibits HBV replication and transcription in HepG2.2.15 cells. a HepG2.2.15 cells were treated with 125, 250, 500, and 1000 nM of ABT-263 for 2 days. Cytoplasmic HBV viral particles were isolated and the viral DNA replication intermediates were quantified (Methods). The results represent the fold change of the replicative intermediates in HepG2.2.15 cells from the indicated treatments, compared with those without treatment. b HepG2.2.15 cells were treated with the indicated concentrations of ABT-263 for 2 days. The lysate was analyzed by immunoblotting using antibodies to caspase-3 (CASP3) and GAPDH (glyceraldehyde 3-phosphate dehydrogenase). c, d The HBx-aa113–135, HBx-aa118–127, or the control peptides were delivered into HepG2.2.15 cells using PEP-1 nanoparticles (Methods). The levels of HBV DNA (c) and the levels of HBV S-antigen (HBsAg) expression (d) in culture medium collected from HepG2.2.15 cells were measured (Methods). The results are shown as fold change compared to that of the control peptide. e–g HepG2-NTCP cells were transfected with HBx118–127 peptide with concentration of […], and 50 μg/ml or unrelated control peptide during HBV infection (multiplicity of infection (MOI) = 200), respectively. e HBV e-antigen (HBeAg), f HBV DNA, and g cell viability were measured at day 8 after HBV infection. Data shown represent mean ± SD. Significance is indicated on the top. Not significant (ns): *P < 0.05, **P < 0.01; two-tailed unpaired t tests (n = 3 biologically independent samples). Source data are provided as a Source Data file
HBx-aa118-127 peptide treatment.
obvious cytotoxicity at concentrations between 12.5-200 µg/mL (Fig. 6g). Taken together, […]

HepG2-NTCP cells [2] = experiment: as above; type: cell-based; design: unit not given here; details: CCK8, 200 µg/mL, day 8 after HBV infection
[3] = Bcl-xL 10 μM in 25 mM Tris-HCl (pH 8.0), read-out: dissociation constant

Row | SMILES | Kd (Bcl-xL; [3]) [µM] | Cell viability (HepG2-NTCP cells [1]; CCK8, 12.5 µg/mL, replicate 1) | Cell viability (HepG2-NTCP cells [1]; CCK8, 12.5 µg/mL, replicate 2) | Cell viability (HepG2-NTCP cells [1]; CCK8, 12.5 µg/mL, replicate 3) | Cell viability (HepG2-NTCP cells [1]; CCK8, 50 µg/mL, replicate 1) | Cell viability (HepG2-NTCP cells [1]; CCK8, 50 µg/mL, replicate 2) | Cell viability (HepG2-NTCP cells [1]; CCK8, 50 µg/mL, replicate 3) | cytotoxicity (in words) (HepG2-NTCP cells [1]; HepG2-NTCP, 12.5, 50, and 200 µg/ml) | Cell viability (HepG2-NTCP cells [2]; replicate 1) | Cell viability (HepG2-NTCP cells [2]; replicate 2) | Cell viability (HepG2-NTCP cells [2]; replicate 3) | Kd (Bcl-xL; Bcl-xL 10 μM presaturated with ABT-263, 25 mM Tris-HCl (pH 8.0), read-out: dissociation constant, Bcl-xL presaturated with ABT-263) [µM]
1 | CC[C@H](C)[C@H](NC(=O)[C@H](CCC(=O)O)NC(=O)[C@H](CCC(=O)O)NC(=O)CNC(=O)[C@H](CC(C)C)NC(=O)[C@H](CCC(=O)O)NC(=O)[C@H](CCC(=O)O)NC(=O)[C@H](Cc1c[nH]c2ccccc12)NC(=O)[C@H](CC(=O)O)NC(=O)[C@H](CCCCN)NC(=O)[C@H](Cc1ccccc1)NC(=O)[C@@H](NC(=O)[C@H](CS)NC(=O)[C@H](CC(=O)O)NC(=O)[C@@H](N)CCCCN)C(C)C)C(=O)N[C@@H](CCCNC(=N)N)C(=O)N[C@@H](CC(C)C)C(=O)N[C@@H](CCCCN)C(=O)N[C@H](C(=O)N[C@@H](Cc1ccccc1)C(=O)N[C@H](C(=O)N[C@@H](CC(C)C)C(=O)NCC(=O)O)C(C)C)C(C)C [HBx-aa113–135] | 26.5 ± 13.7 |  |  |  |  |  |  |  |  |  |  | 
2 | CC[C@H](C)[C@H](NC(=O)[C@H](CCC(=O)O)NC(=O)[C@H](CCC(=O)O)NC(=O)CNC(=O)[C@H](CC(C)C)NC(=O)[C@H](CCC(=O)O)NC(=O)[C@H](CCC(=O)O)NC(=O)[C@H](Cc1c[nH]c2ccccc12)NC(=O)[C@H](CC(=O)O)NC(=O)[C@@H](N)CCCCN)C(=O)O [HBx-aa118–127] (H-KDWEELGEEI-OH) | 10 ± 2.95 | 94.534 | 96.726 | 98.429 | 92.904 | 96.191 | 97.303 | no obvious cytotoxicity | 96.104 | 101.260 | 101.966 | 21 ± 4.05

From publication PMC6642116, “Structural and functional analyses of hepatitis B virus X protein BH3-like domain and Bcl-xL interaction” (Nature Communications, 2019)
